Results on 14 compounds are retold here after DBAASP.

In brackets after ≈: the same amount, converted by molar mass. Several values for one entry are separate records, joined by “and”; a condition that tells them apart may be missing. Equal entries are not always repeated.

What all share (test): ≥ marks a high value that may be exact or a test limit, other limits are often not marked, values filed in µg/mL are converted to µM
For assay [1], the system named is Staphylococcus aureus USA 300.
For assay [2], the system named is Escherichia coli K-12.
The subject of assay [3] is Micrococcus luteus.
Assay [4] deals with Staphylococcus aureus NCTC 8325.
Assay [5] deals with Escherichia coli ATCC 25922.
In assay [6] the test system is Candida albicans ATCC 90028.
Assay [7] relates to Micrococcus luteus ATCC 9341.
Assay [8] has as its system Staphylococcus aureus ATCC BAA-1556.
The subject of assay [9] is Salmonella enterica subsp. enterica serovar Typhimurium ATCC 14028.
Assay [10] concerns Enterococcus faecalis ATCC 29212.
Assay [11] deals with Salmonella enterica subsp. enterica serovar Typhimurium C77-31.
For assay [12], the system named is Staphylococcus aureus ATCC 25923.
Assay [13] relates to Bacillus subtilis CMCC 63501.
Assay [14] deals with Escherichia coli 078.
For assay [15], the system named is Escherichia coli K88.
Assay [16] deals with Escherichia coli UB1005.
Assay [17] concerns Staphylococcus aureus ATCC 29213.
Assay [18] has as its system Staphylococcus epidermidis ATCC 12228.
The subject of assay [19] is Salmonella enterica subsp. enterica serovar Pullorum C79-13.
Assay [20] relates to Escherichia coli K99.
The test system of assay [21] is Pseudomonas syringae pv. syringae EPS 94.
In assay [22] the test system is Erwinia amylovora PMV 6076.
The subject of assay [23] is Pseudomonas aeruginosa ATCC 27853.
In assay [24] the test system is Bacillus subtilis.
Assay [25] has as its system Streptococcus pyogenes ATCC 19615.
In assay [26] the test system is Klebsiella pneumoniae ATCC 13883.
The subject of assay [27] is Escherichia coli.

Turning to `CC[C@H](C)[C@H](NC(=O)[C@H](C)NC(=O)[C@H](CCCCN)NC(=O)[C@H](Cc1ccccc1)NC(=O)CN)C(=O)N[C@H](C(=O)N[C@@H](CCC(N)=O)C(=O)N[C@@H](CCCN=C(N)N)C(=O)N[C@H](C(=O)N[C@@H](CCCCN)C(=O)N[C@@H](CC(=O)O)C(=O)N[C@@H](Cc1ccccc1)C(=O)N[C@@H](CC(C)C)C(=O)N[C@@H](CCCN=C(N)N)C(=O)N[C@@H](CC(N)=O)C(=O)N[C@@H](CC(C)C)C(=O)N[C@H](C(N)=O)C(C)C)[C@@H](C)CC)C(C)C` [GFKAIVQRIKDFLRNLV], the MIC in assay [1] was 7.5 µM and 3.1 µM; in assay [2], 15 µM (≈ 30.2 µg/mL).
Turning to `CC[C@H](C)[C@H](NC(=O)[C@H](CO)NC(=O)[C@H](CO)NC(=O)[C@@H](NC(=O)[C@H](CC(C)C)NC(=O)CN)C(C)C)C(=O)NCC(=O)N[C@@H](CCCN=C(N)N)C(=O)N[C@@H](C)C(=O)N[C@@H](CC(C)C)C(=O)NCC(=O)NCC(=O)N[C@@H](CC(C)C)C(=O)N[C@@H](CC(C)C)C(=O)N[C@@H](C)C(=O)N[C@@H](CC(=O)O)C(=O)N[C@H](C(=O)N[C@H](C(=O)N[C@@H](CCCCN)C(=O)N[C@@H](CO)C(=O)N[C@@H](CCCCN)C(=O)N[C@@H](CCC(=O)O)C(=O)N[C@@H](CCC(N)=O)C(=O)N1CCC[C@H]1C(=O)N[C@@H](C)C(=O)O)C(C)C)C(C)C` [GLVSSIGRALGGLLADVVKSKEQPA], in assay [3], the MIC was found to be 20.3 µM (≈ 50 µg/mL).
As to `CSCC[C@H](NC(=O)CNC(=O)CNC(=O)[C@H](CCCCN)NC(=O)[C@H](C)NC(=O)[C@H](Cc1ccccc1)NC(=O)[C@H](CCCCN)NC(=O)[C@H](CCCCN)NC(=O)[C@H](CC(C)C)NC(=O)[C@H](C)NC(=O)[C@H](CC(=O)O)NC(=O)[C@H](CC(C)C)NC(=O)[C@H](Cc1ccccc1)NC(=O)[C@@H](NC(=O)CN)C(C)C)C(=O)N[C@@H](CC(N)=O)C(=O)N[C@@H](C)C(=O)N[C@H](C(=O)N[C@@H](CC(C)C)C(=O)N[C@@H](CC(N)=O)C(=O)N1CCC[C@H]1C(=O)N[C@@H](CCCCN)C(=O)O)C(C)C` [GVFLDALKKFAKGGMNAVLNPK], the MIC in assay [4] was no less than 100 µM; in assay [5], 18 µM (≈ 41.7 µg/mL); in assay [6] it was no less than 100 µM.
In assay [7], `CC[C@H](C)[C@H](N)C(=O)N[C@@H](CC(C)C)C(=O)N1CCC[C@H]1C(=O)N[C@@H](Cc1c[nH]c2ccccc12)C(=O)N[C@@H](CCCCN)C(=O)N[C@@H](Cc1c[nH]c2ccccc12)C(=O)N1CCC[C@H]1C(=O)N[C@@H](Cc1c[nH]c2ccccc12)C(=O)N[C@@H](Cc1c[nH]c2ccccc12)C(=O)N1CCC[C@H]1C(N)=O` [ILPWKWPWWP] registered an MIC of 1.6 µM (≈ 2.25 µg/mL).
Compound `CC[C@H](C)[C@H](N)C(=O)N[C@@H](CC(C)C)C(=O)N1CCC[C@H]1C(=O)N[C@@H](Cc1c[nH]c2ccccc12)C(=O)N[C@@H](CCCCN)C(=O)N[C@@H](Cc1c[nH]c2ccccc12)C(=O)N1CCC[C@H]1C(=O)N[C@@H](Cc1c[nH]c2ccccc12)C(N)=O` [ILPWKWPW] came in with an MIC in assay [7] of 6.3 µM (≈ 7.08 µg/mL).
On to `CC(C)C[C@H](NC(=O)[C@H](CC(C)C)NC(=O)[C@H](CCCCN)NC(=O)[C@H](CC(C)C)NC(=O)[C@H](CC(C)C)NC(=O)[C@H](Cc1c[nH]c2ccccc12)NC(=O)[C@@H](N)CCCCN)C(N)=O` [KWLLKLL], for which the MIC in assay [8] was no less than 100 µM.
`CC[C@H](C)[C@H](NC(=O)[C@H](Cc1c[nH]c2ccccc12)NC(=O)[C@H](CC(C)C)NC(=O)[C@H](CCCN=C(N)N)NC(=O)[C@H](Cc1c[nH]c2ccccc12)NC(=O)[C@@H](N)CCCCN)C(=O)N[C@@H](CCCN=C(N)N)C(=O)N[C@@H](Cc1c[nH]c2ccccc12)C(=O)N[C@@H](CC(C)C)C(N)=O` [KWRLWIRWL]: the MIC in [8] is 12.5 µM (≈ 16.9 µg/mL).
On to `CC[C@H](C)[C@H](NC(=O)[C@H](Cc1c[nH]c2ccccc12)NC(=O)[C@H](CCCN=C(N)N)NC(=O)[C@H](CCCN=C(N)N)NC(=O)[C@H](Cc1c[nH]c2ccccc12)NC(=O)[C@@H](N)CCCCN)C(=O)N[C@@H](C)C(=O)N[C@@H](Cc1c[nH]c2ccccc12)C(=O)N[C@@H](CC(C)C)C(N)=O` [KWRRWIAWL], for which, in assay [8], the MIC was found to be 12.5 µM (≈ 16.4 µg/mL).
The same measure, in the same setting: for `CC[C@H](C)[C@H](NC(=O)[C@H](Cc1c[nH]c2ccccc12)NC(=O)[C@H](CCCN=C(N)N)NC(=O)[C@H](CCCN=C(N)N)NC(=O)[C@H](Cc1c[nH]c2ccccc12)NC(=O)[C@@H](N)CCCCN)C(N)=O` [KWRRWI] the value was no less than 100 µM.
The same measure, in the same setting: for `CC(C)C[C@H](NC(=O)[C@H](CCCCN)NC(=O)[C@H](CC(C)C)NC(=O)[C@H](CC(C)C)NC(=O)[C@H](CC(C)C)NC(=O)[C@H](CCCCN)NC(=O)[C@@H](N)CC(C)C)C(N)=O` [LKLLLKL] the value was no less than 100 µM.
As to `CC[C@H](C)[C@H](NC(=O)[C@H](Cc1c[nH]c2ccccc12)NC(=O)[C@H](CCCCN)NC(=O)[C@H](CC(C)C)NC(=O)[C@@H](NC(=O)[C@H](Cc1c[nH]c2ccccc12)NC(=O)CNC(=O)[C@@H](NC(=O)[C@H](CCCCN)NC(=O)[C@H](CCCCN)NC(=O)[C@H](CC(C)C)NC(=O)[C@@H](N)CCCN=C(N)N)[C@@H](C)CC)C(C)C)C(N)=O` [RLKKIGWVLKWI], the MIC in assay [9] came to 4 µM (≈ 6.16 µg/mL); in assay [5], 2 µM (≈ 3.08 µg/mL); in assay [10], 4 µM (≈ 6.16 µg/mL); in [11], 4 µM (≈ 6.16 µg/mL); in assay [12], 4 µM (≈ 6.16 µg/mL); in [13] it was 2 µM (≈ 3.08 µg/mL). In addition, the MIC in assay [14] was found to be 4 µM (≈ 6.16 µg/mL); in [15], 1 µM (≈ 1.54 µg/mL); in assay [16] it was 1 µM (≈ 1.54 µg/mL); in [17] it was 4 µM (≈ 6.16 µg/mL); in assay [18], 4 µM (≈ 6.16 µg/mL); in assay [19], 1 µM (≈ 1.54 µg/mL). For the same compound, the MIC in assay [20] was 4 µM (≈ 6.16 µg/mL).
As for `CC[C@H](C)[C@H](NC(=O)[C@H](CCCCN)NC(=O)[C@H](CCCCN)NC(=O)[C@H](Cc1ccccc1)NC(=O)[C@H](CC(C)C)NC(=O)[C@H](CCCCN)NC(=O)[C@H](CCCCN)NC(=O)[C@@H](N)CO)C(=O)N[C@@H](CC(C)C)C(=O)N[C@@H](CCCCN)C(=O)N[C@@H](Cc1ccc(O)cc1)C(=O)N[C@@H](CC(C)C)C(=O)N[C@@H](C)C(=O)NCC(=O)N1CCC[C@H]1C(=O)N[C@@H](C)C(=O)N[C@@H](CCCCN)C(=O)N[C@@H](Cc1ccccc1)C(=O)N[C@@H](CC(C)C)C(=O)N[C@@H](Cc1cnc[nH]1)C(=O)N[C@@H](CO)C(=O)N[C@@H](C)C(=O)N[C@@H](CCCCN)C(=O)O` [SKKLFKKILKYLAGPAKFLHSAK], the MIC in assay [21] and in [22] was 3.54 µM (≈ 9.25 µg/mL) throughout.
As for `CC(C)C[C@H](NC(=O)[C@H](CCCN=C(N)N)NC(=O)[C@H](Cc1c[nH]c2ccccc12)NC(=O)[C@H](CC(C)C)NC(=O)[C@H](Cc1c[nH]c2ccccc12)NC(=O)[C@H](Cc1c[nH]c2ccccc12)NC(=O)[C@H](CC(C)C)NC(=O)[C@H](Cc1c[nH]c2ccccc12)NC(=O)[C@@H](N)Cc1c[nH]c2ccccc12)C(N)=O` [WWLWWLWRL], in assay [8], the MIC was 3.12 µM (≈ 4.51 µg/mL).
`CC(C)[C@H](NC(=O)CNC(=O)[C@H](CCCN=C(N)N)NC(=O)[C@H](Cc1cnc[nH]1)NC(=O)[C@H](Cc1c[nH]c2ccccc12)NC(=O)[C@H](Cc1ccccc1)NC(=O)[C@H](Cc1cnc[nH]1)NC(=O)[C@H](Cc1ccc(O)cc1)NC(=O)[C@@H](N)Cc1ccc(O)cc1)C(=O)N[C@H](C(=O)N[C@@H](CCCCN)C(=O)N[C@@H](CCCN=C(N)N)C(=O)O)[C@@H](C)O` [YYHFWHRGVTKR]: the MIC was 40 µM (≈ 66 µg/mL) in [23]; 40 µM (≈ 66 µg/mL) in assay [9]; 30 µM (≈ 49.5 µg/mL) in assay [10]; 30 µM (≈ 49.5 µg/mL) in assay [12]; no less than 40 µM in assay [24]; no less than 70 µM in [25]. The MIC was no less than 40 µM in assay [26] and 40 µM (≈ 66 µg/mL) in assay [27].
